From patent publication US20170290886A1, “TREATMENT OF NEURODEVELOPMENTAL DISORDERS” (Academia Sinica, priority 2016, published 2017)
Where no end group is shown, it is not given here.

Key:
Assay type in all cases: in vivo, rat
MeCP2 SUMOylation = assay: In vitro SUMOylation assay for CA1 tissue
Description: Hippocampal CA1 tissue lysate was prepared in the same way as that prepared for western blot. For immunoprecipitating the MeCP2, the clarified lysate (0.5 mg) was immunoprecipitated with 3 μl of anti-MeCP2 antibody (Catalog No. 3456, Cell Signaling) at […] overnight. The protein A agarose beads ([…], 50% slurry, GE Healthcare, Barrington, Ill.) were added to the IP reaction product to catch the immune complex at […] for 3 h. The immune complex on beads were washed three times with washing buffer containing 20 mM HEPES (pH 7.4), 150 mM NaCl, 1 mM EDTA, 1% IGEPAL CA-630, 1 mM DTT, 50 mM β-glycerophosphate, 50 mM NaF, […] PMSF, […] and subject to in vitro SUMOylation reaction with the addition of recombinant PIAS1 protein (3 μl, Catalog No. BML-UW9960, Enzo Life
Sciences, Farmingdale, N.Y.), E1(1 μl), E2 (1 μl) and the SUMO1 (0.5 μl) proteins provided in the kit. In vitro SUMOylation assay was performed using the SUMO linkTM kit according to the manufacturer's instructions (Active Motif, Carlsbad, Calif.) and boiled in Laemmli sample buffer at 95° C. for 10 min. The in vitro SUMOylation product was subject to 8% SDS-PAGE followed by transferring onto the PVDF membrane (Millipore). The membrane was immunoblotted with anti-MeCP2 antibody (1:1000, Catalog No. 3456, Cell Signaling) or anti-SUMO1 antibody (1:4000, Catalog No. 40120, Active Motif). For determination of endogenous MeCP2 SUMOylation after PIAS1 siRNA transfection, no E1, E2, SUMO1 and PIAS1 proteins were added to the IP reaction product. The remaining procedures were the same as that for carrying out the in vitro SUMOylation assay.
Rats were anesthetized with pentobarbital (40 mg/kg) and subject to stereotaxic surgery. Two 23-gauge, stainless-steel, thin-wall cannulae were implanted bilaterally to the CA1 area of rat brain at the following coordinates: 3.5 mm posterior to the bregma, ±2.5 mm lateral to the midline and 3.4 mm ventral to the skull surface. After recovery from the surgery, NMDA (2 μg/μl), IGF-1 (100 ng/ml), CRF (100 ng/μl) and dexamethasone (30 ng/μl) were directly injected to the CA1 area at a rate of 0.1 μl/min. A total of 0.7 μl was injected to each side. For transient Mecp2 plasmid DNA transfection, 0.7 μg/μl plasmid DNA complex ([…]) was injected directly to CA1 area bilaterally in the rat brain using the non-viral transfection agent polyethyleneimine (PEI). Before injection, plasmid DNA was diluted in 5% glucose to a stock concentration of 2.77 μg/μl. Branched PEI of 25 kDa (Sigma, St. Louis, Mo.) was diluted to 0.1 M concentration in 5% glucose and added to the DNA solution. Immediately before injection, 0.1 M PEI was added to reach a ratio of PEI nitrogen per DNA phosphate equals to 10. […]

[1] = test system: MeCP2 phosphorylation at Ser-421; assay: MeCP2 phosphorylation at Ser-421 in CA1 area (western blot); conditions: 1 hr
Description: (§1) The E3 SUMO-protein ligase PIAS1, MeCP2, Flag, V5 and Myc, the clarified lysate (0.5 mg) was immunoprecipitated by mixed with 0.5 μl of anti-PIAS1 antibody (Catalog No. 2474-1, Epitomics, Burlingame, Calif.), 2 μl of anti-MeCP2 antibody (Catalog No. 3456, Cell Signaling, Danvers, Mass.), 2 μl of anti-Flag M2 antibody (Catalog No. F1804, Sigma-Aldrich, St. Louis, Mo.), 1 μl of anti-VS antibody (Catalog No. MCA2895, AbD Serotec, Kidlington, UK) and 2 μl of anti-Myc antibody (Catalog No. 05-419, Millipore, Bedford, Mass.) at 4° C., and allowed the mixture to react overnight. Twenty microliter of rabbit or mouse IgG was used in the control group. The protein A or G magnetic beads ([…], 50% slurry, GE Healthcare, Barrington, IL) were added to the IP reaction product to catch the immune complex at 4° C. for 3 h. The immune complex on beads were washed three times with washing buffer containing 20 mM HEPES (pH 7.4), 150 mM NaCl, 1 mM EDTA, 1% IGEPAL CA-630, 1 mM DTT, 50 mM β-glycerophosphate, 50 mM NaF, 10 mg/ml PMSF, 4 µg/ml aprotinin, 4 μg/ml leupeptin and 4 μg/ml pepstatin, and then subject to 8% SDS-PAGE followed by transferring onto the Nitrocellulose (NC) membrane (GE Healthcare). […] The protein bands were quantified by using the NIH Image J Software. […]

PIAS1 = PIAS1 expression in CA1 area (western blot); conditions: siRNA 8 pmol; FIG. 2h lower panel
Description: as §1

Compound: CN[C@H](CC(=O)O)C(=O)O [NMDA, N-methyl-D-aspartate]
- level of MeCP2 SUMOylation (MeCP2 SUMOylation; NMDA 2 μg/μl injected to CA1 area, 1 hr, vs Flag-vector + PBS, FIG. 3b): increased the level of MeCP2 SUMOylation
- phosphorylation level of MeCP2 at Ser-421 ([1]; NMDA 2 μg/μl injected to CA1 area, FIG. 3b): increased the phosphorylation level of MeCP2 at Ser-421

Compound: IGF-1: Insulin-like growth factor-1, purchased from Sigma-Aldrich
- level of MeCP2 SUMOylation (MeCP2 SUMOylation; IGF-1 100 ng/ml injected to CA1 area, 1 hr later, vs PBS, FIG. 3c): significantly increased the level of MeCP2 SUMOylation
- phosphorylation level of MeCP2 at Ser-421 ([1]; IGF-1 100 ng/ml injected to CA1 area, FIG. 3c): increased the phosphorylation level of MeCP2 at Ser-421

Compound: PIAS1 siRNA: siRNA against PIAS1, SEQ ID NO: 18 and 19 (chain 1 UCCGGAUCAUUCUAGAGCUTT; chain 2 AGCUCUAGAAUGAUCCGGATT; chemistry not given here)
- level of endogenous MeCP2 SUMOylation (MeCP2 SUMOylation; siRNA 8 pmol to CA1 area, 48 hrs later, vs control siRNA, FIG. 2g, 2h): significantly decrease the level of endogenous MeCP2 SUMOylation
- PIAS1 expression in CA1 area (PIAS1): decreased PIAS1 expression

Compound: CRF: Corticotropin-releasing factor, purchased from Sigma-Aldrich (SEEPPISLDLTFHLLREVLEMARAEQLAQQAHSNRKLMEII; ends and bridges not checked; UniProt P06850 154-194, looked up)
- level of MeCP2 SUMOylation (MeCP2 SUMOylation; CRF injected to CA1 area, 1 hr later, vs PBS, FIG. 3d): markedly increased the level of MeCP2 SUMOylation
